These results are taken from article PMC2987774, “Creation of a novel peptide with enhanced nuclear localization in prostate and pancreatic cancer cell lines” (BMC Biotechnology, 2010).

“And” between values parts separate entries of the source, which are not always exact repeats. Equal values may be shown once. Read-outs that look alike come from different tables or passages of the source. Marks after values point to notes of the source that are not given here.

For test [1], the system named is DU-145 cells. Particulars: for uptake of Glu-Oct6-FITC on coincubation with carboxydansyl peptide: 300 nM dansyl peptide + 300 nM Glu-Oct6-FITC, 1 hr, BD LSR II (Figure 2D); for % Inhibition of uptake: 300 nM, 4 hr.
Protocol: Peptides were added to subconfluent cultures of cells at times, temperatures, and concentrations indicated in experiments. Concentrations ranging from 0 to 1000 nM were assayed. Fluorescence was normalized using calibration beads (Becton-Dickinson; BD). Cells were analyzed in the presence of 5 mM 7-AAD (eBioscience, San Digeo CA) to gate on live events. Fluorescence was quantified, after cells were harvested, using a BD FACScan flow cytometer. At least 10,000 events were acquired using CellQuest Pro software and an Apple Macintosh G4 dual coprocessor computer running OS X 10.3.9. Fluorescence detectors on the instrument were standardized prior to each acquisition run, so that fluorescence intensities from different days could be compared. Because the FACScan employs logarithmic amplifiers on the fluorescence detectors, the more accurate parameter with which to compare fluorescence intensities for different samples is the geometric mean fluorescence intensity (geometric MFI). For the studies examining uptake of carboxyfluorescein peptides plus carboxydansyl peptides, fluorescence was quantified on a BD LSR II flow cytometer.
Test [2] concerns DU-145 and LNCaP cells. As to the kind of experiment: Live cell imaging, inverted epifluorescence microscopy with DRAQ5. It is filed as cell-based. Particulars: 500 nM, 24 hrs incubation. Here is the method: A Zeiss Axiovert 200 inverted phase-contrast microscope outfitted with epifluorescence was used for live imaging studies. Subconfluent cultures of cells in 12-well plates were incubated with 500 nM peptides as indicated. DRAQ5 (Axxora; […] final concentration) was added for the last hour of incubation, then the cells were washed twice with warm phenol red-free buffer. Cells were examined in phenol red-free buffer plus 10% serum. Images were acquired and analyzed using Zeiss Axiovision software.

Test [3] has as its system DU-145 and LNCaP cells. Briefly: Nuclear colocalization by imaging flow cytometry (DRAQ5), statement pooled over two lines. Format: cell-based. Particulars: 250 nM, 4 hours; fixed cells, IDEAS software. Here is the method:
Figure 4 Imaging studies. Figure 4A: DU-145 and LNCaP cells were incubated with 250 nM Glu-Ala-FITC or Glu-Oct6-FITC for 4 hours, counterstained with […] DRAQ 5, then fixed in paraformaldehyde and analyzed by imaging flow cytometry on an Amnis Imaging Cytometer. IDEAS software (Amnis) was used to generate and colorize the images. Across each row of images, one is viewing the same cell under different fluorescence excitations. […] Figure 4B: Live cell imaging of Glu-Oct6-FITC by DU-145 cells. 500 nM Glu-Oct6-FITC was incubated with DU-145 cells overnight (necessary for imaging purposes). Cells were washed with phenol red-free buffer, counter-stained with DRAQ5 at […], and then examined under a Zeiss Axiovert 200 inverted phase contrast microscope with epifluorescence. The merged image confirms the presence of Glu-Oct6-FITC in nuclei. Merged images with and without Nomarski interference are shown. Figure 4C and D: DU-145 cells incubated with Glu-FITC and Oct6-FITC, as described for Figure 3B. Note the absence of FITC fluorescence in nuclei.
(§1) Concentrations ranging from 0 to 1000 nM were assayed. Fluorescence was normalized using calibration beads (Becton-Dickinson; BD). […] Four to five thousand events were collected for analysis.

For test [4], the system named is PANC-1 cells. Briefly: Apoptosis, FITC-annexin V plus PI flow cytometry. The conditions noted are these: 48 hr, mean of 3 experiments. It is filed as cell-based. Here is the method:
(§2) DU-145 and PANC-1 cells were incubated with PNAs Glu-Oct6-13410a or 13410a (no CPP attached) at 0, 300, 600, or 1000 nM for 48 hr. Cells were harvested, then stained with FITC-annexin V (Abcam; Cambridge, MA) and counterstained with propidium iodide (Sigma, St.Louis, MO). Cells were analyzed on a BD FACScan for fluorescence in the FL1 and FL3 channels; CellQuest Pro software was used to quantify fluorescence and determine the extent of apoptosis.

Test [5] has as its system DU-145 cells. As to the kind of experiment: Apoptosis, FITC-annexin V plus PI flow cytometry. Format: cell-based. Particulars: 48 hr, mean of 3 experiments. Here is the method: as §2
In test [6] the test system is PANC-1 cells. Briefly: Nuclear colocalization by imaging flow cytometry (DRAQ5, Amnis ImageStream). Format: cell-based. Particulars: 1000 nM, 18 hr; 4 to 5 thousand events. Here is the method: as §1
The test system of test [7] is DU-145 cells. The description is as above. It is filed as cell-based. Particulars: 1000 nM, 18 hr; 4 to 5 thousand events. Here is the method: as §1

With FFFAAGRKRKKRT-dansyl [Phe-Oct6-Dansyl], the “uptake of Glu-Oct6-FITC on coincubation with carboxydansyl peptide” value in the test on DU-145 cells [1] is reported as “nearly unaltered uptake”.
With “GRKRKKRT-FITC [Oct6-FITC, Oct6 transcription factor NLS peptide alone, FITC-labeled, reference compound]”, the “% Inhibition of uptake” value with DU-145 cells [1] (0% NaN3 (reference)) was 0%; with DU-145 cells [1] (0.1% NaN3), 29.8%; in the test on DU-145 cells [1] (1.0% NaN3), 56.7%. Moreover, the “accumulation in the nuclei” value with DU-145 and LNCaP cells [2] is “not”.
Take “EEEAA-FITC [Glu-Ala-FITC, carboxyfluorescein-labeled glutamate-rich peptide EEEAA-FITC]”: the “% Inhibition of uptake” value in the test on DU-145 cells [1] (0% NaN3 (reference)) and in the test with DU-145 cells [1] (0.1% NaN3) was 0% throughout. Besides, the “accumulation in the nuclei” value with DU-145 and LNCaP cells [2] is given as “not”. Besides, the “nuclei positive for DRAQ5 and FITC colocalization” value with DU-145 and LNCaP cells [3] is ~ 10%.
NNNAAGRKRKKRT-dansyl [Asn-Oct6-Dansyl]: in the test with DU-145 cells [1], the “uptake of Glu-Oct6-FITC on coincubation with carboxydansyl peptide” value is on record as “nearly unaltered uptake”.
As for EEEAAKKK-FITC [Glu-Lys-FITC], the “% Inhibition of uptake” value in the test with DU-145 cells [1] (0% NaN3 (reference)) and in the test with DU-145 cells [1] (0.1% NaN3) was 0% each time.
Take “EEEAAGRKRKKRT-TCCCGTAAATCCCTA [Glu-Oct6-13410a]”: the “% apop.” value with PANC-1 cells [4] (300 nM PNA) is 17.4%; in the test on PANC-1 cells [4] (600 nM PNA) it was 69% and 69.6* %; with PANC-1 cells [4] (1000 nM PNA), 84.6* %; in the test with DU-145 cells [5] (300 nM PNA) it was 8.7%; in the test with DU-145 cells [5] (600 nM PNA), 48% and 48.7* %; in the test on DU-145 cells [5] (1000 nM PNA) it was 82.5* %.
For “EEEAAGRKRKKRT-FITC [Glu-Oct6-FITC, novel CPP, EEEAA on the N-terminus of the Oct6 NLS, FITC-labeled]”, the “% Inhibition of uptake” value in the test on DU-145 cells [1] (0% NaN3 (reference)) was determined as 0%; in the test on DU-145 cells [1] (0.1% NaN3), 0%; with DU-145 cells [1] (1.0% NaN3), 24.8%. Also, in the test on DU-145 and LNCaP cells [2], the “accumulation in the nuclei” value was “accumulated in the nuclei”. Moreover, the “distribution in the cytoplasm” value in the test on DU-145 and LNCaP cells [3] is recorded as “approximately 50%”. The “distribution in the nucleus” value with DU-145 and LNCaP cells [3] is listed as “approximately 50%”.
Turning to “EEEAAGRKRKKRT-TATGATCTCCTCCGT-K-FITC [Glu-Oct6-PNA-FITC, Glu-Oct6 at the N terminus, inert PNA …-lysyl-FITC at the C terminus]”, in the test on PANC-1 cells [6], the “mean % cyto. FITC” value came to 21.8%, the “mean cyto. FITC intensity” value was 68,465 and the “mean nuclear FITC intensity” value is recorded as 322,794. In the test with DU-145 cells [7], the “mean % cyto. FITC” value was found to be 22.48%, the “mean % nuclear FITC” value came to 68.04%, the “mean cyto. FITC intensity” value is 76,943 and the “mean nuclear FITC intensity” value was 274,597.
